From patent US8097625B2, “Combination of sedative and a neurotransmitter modulator, and methods for improving sleep quality and treating depression” (priority 2003, dated 2012)

Tested on: subjects with insomnia related to major depressive disorder
Test: DREAMDD clinical study: subjective sleep and daytime function (IVRS sleep diary)
Format: in vivo, human
Conditions: for Subjective Sleep Latency, Mean (SD) / Subjective Sleep Latency, Median / Subjective Total Sleep Time, Mean (SD) / Subjective Total Sleep Time, Median / Subjective Wake Time After Sleep Onset (WASO), Mean (SD) / Subjective Wake Time After Sleep Onset (WASO), Median: 3 mg nightly + fluoxetine, ITT
Method: Depression Response to Eszopiclone in Adults With Major Depressive Disorder (DREAMDD): A Randomized, Double-Blind, Placebo-Controlled, Parallel-Group, 8-Week, Safety and Efficacy Study of Eszopiclone 3 mg Compared to Placebo in Subjects with Insomnia Related to Major Depressive Disorder
This study was a double-blind randomized, placebo-controlled, parallel group study. […] All subjects must satisfy DSM-IV criteria for insomnia related to major depression.
In addition, subjects were randomized at Visit 3 (end of baseline) to treatment with one of the following nightly (at bedtime): eszopiclone (3 mg) or matching placebo.
Primary Analysis: The primary analysis was conducted using the ITT population for the primary efficacy variable, mean WASO during the first week of double-blind medication. This endpoint was computed by averaging the daily WASO values obtained via IVRS from Visit 3 to Visit 4. The analysis was conducted using an analysis of variance model (ANOVA) with treatment and site as fixed effects. The analysis was performed on rank-transformed data, using the SAS MIXED procedure. The cumulative distribution function by treatment was plotted.
Other Secondary Analyses: Analysis of the secondary subjective sleep parameters, the 1, 2, 3, 4, 6, and 8 week post-randomization and double-blind averages of WASO (except week 1 average, which is the primary efficacy endpoint), TST, SL, mean number of awakenings, depth and quality of sleep, daytime alertness, ability to concentrate, physical well-being and ability to function was conducted on rank-transformed data using the same method as for the primary analysis.
Sleep Diary Test: Patients are to call between 6 a.m. and 10 a.m. and answer the following questions. 1) Did you take study medication last night? 2) What time did you go to bed to go to sleep last night? 3) Did you fall asleep last night? (If No, go to question 10) 4) How long did it take you to fall asleep last night? Hours+Minutes? 5) Last night, did you wake up during the night, after falling asleep? 5a) How many times, did you wake up after falling asleep? 5b) After falling asleep for the first time, how much total time did you spend awake during the night? Hours+Minutes? 6) How long did you sleep last night? Hours+Minutes? 7) What time did you get out of bed to rise for the day? 8) What number best describes the quality of your sleep last night? (0=poor and 10=excellent) 9) How would you describe the depth of your sleep last night? (0=very light and 10=very deep) 10) What number best describes how you generally felt yesterday during the day? (0=very sleepy and 10=wide awake and alert) 11) What number best describes your ability to concentrate or think clearly during the day yesterday (0=poor, 10=excellent) 12) What number best describes your sense of physical well being yesterday? (0=poor, 10=excellent) 13) How would you describe your ability to function during the day yesterday? (0=poor and 10=excellent)
Methods: Patients (n=545) met DSM-IV criteria for MDD and insomnia, including reported sleep latency (SL)≧30 min (median 73 min), wake time after sleep onset (WASO) ≧45 min (median 90 min), and total sleep time (TST)≦6.5h (median 294 min). All patients received fluoxetine QAM, and were randomly assigned to double-blind treatment with eszopiclone 3 mg or placebo QHS for 8 weeks. Subjective sleep and daytime function were assessed weekly.

[1] = each treatment week, p<0.03, 3 mg QHS + fluoxetine QAM, 8 weeks

CN1CCN(C(=O)OC2c3nccnc3C(=O)N2c2ccc(Cl)cn2)CC1 (single isomer, unassigned; (+)) [Eszopiclone, (+) 6-(5-chloro-2-pyridinyl)-6,7-dihydro-7-oxo-5H-pyrrolo[3,4b]pyrazin-5-yl 4-methylpiperazine-1-carboxylate]
Subjective Sleep Latency, Mean (SD) (Double-Blind Average): 53.0 (52.6) Minutes | Subjective Sleep Latency, Median (Double-Blind Average): 39.3 min | Subjective Total Sleep Time, Mean (SD) (Double-Blind Average): 395.5 (66.9) Minutes | Subjective Total Sleep Time, Median (Double-Blind Average): 400.0 min | Subjective Wake Time After Sleep Onset (WASO), Mean (SD) (Double-Blind Average): 72.6 (58.7) Minutes | Subjective Wake Time After Sleep Onset (WASO), Median (Double-Blind Average): 57.4 min | Subjective Sleep Latency, Mean (SD) (Week 1): 62.6 (61.0) Minutes | Subjective Sleep Latency, Median (Week 1): 43.3 min | Subjective Total Sleep Time, Mean (SD) (Week 1): 375.9 (76.5) Minutes | Subjective Total Sleep Time, Median (Week 1): 380.0 min | Subjective Sleep Latency, Mean (SD) (Week 2): 45.0 (52.2) Minutes | Subjective Sleep Latency, Median (Week 2): 30.0 min | Subjective Total Sleep Time, Mean (SD) (Week 2): 393.6 (103.0) Minutes | Subjective Total Sleep Time, Median (Week 2): 397.5 min | Subjective Sleep Latency, Mean (SD) (Week 3): 54.1 (100.9) Minutes | Subjective Sleep Latency, Median (Week 3): 25.0 min | Subjective Total Sleep Time, Mean (SD) (Week 3): 397.3 (88.1) Minutes | Subjective Total Sleep Time, Median (Week 3): 405.0 min | Subjective Sleep Latency, Mean (SD) (Week 4): 40.5 (50.5) Minutes | Subjective Sleep Latency, Median (Week 4): 24.2 min | Subjective Total Sleep Time, Mean (SD) (Week 4): 395.6 (87.3) Minutes | Subjective Total Sleep Time, Median (Week 4): 390.0 min | Subjective Wake Time After Sleep Onset (WASO), Mean (SD) (Week 4): 71.4 (80.3) Minutes | Subjective Wake Time After Sleep Onset (WASO), Median (Week 4): 42.5 min | Subjective Sleep Latency, Mean (SD) (Week 6): 43.8 (77.3) Minutes | Subjective Sleep Latency, Median (Week 6): 20.0 min | Subjective Total Sleep Time, Mean (SD) (Week 6): 408.5 (84.3) Minutes | Subjective Total Sleep Time, Median (Week 6): 420.0 min | Subjective Wake Time After Sleep Onset (WASO), Mean (SD) (Week 6): 76.5 (88.1) Minutes | Subjective Wake Time After Sleep Onset (WASO), Median (Week 6): 46.3 min | Subjective Sleep Latency, Mean (SD) (Week 8): 42.4 (42.3) Minutes | Subjective Sleep Latency, Median (Week 8): 30.0 min | Subjective Total Sleep Time, Mean (SD) (Week 8): 405.9 (80.6) Minutes | Subjective Total Sleep Time, Median (Week 8): 411.4 min | Subjective Wake Time After Sleep Onset (WASO), Mean (SD) (Week 8): 63.8 (74.1) Minutes | Subjective Wake Time After Sleep Onset (WASO), Median (Week 8): 43.1 min | WASO compared to placebo (Weeks 1, 3-5, and 7-8, p<0.04, 3 mg QHS + fluoxetine QAM): significantly lower | ratings in sleep quality and depth compared to placebo (across the treatment period, p<0.005, 3 mg QHS + fluoxetine QAM): higher ratings | sleep latency (SL) compared to placebo [1]: significantly lower | total sleep time (TST) compared to placebo [1]: greater | improvement in sleep (patients with depression-related secondary insomnia, co-administration with fluoxetine): rapid and sustained improvement in sleep | ratings of daytime alertness, ability to concentrate, and well-being compared to placebo (p≦0.02, 3 mg QHS + fluoxetine QAM): higher ratings
